Assay results published in EP1410783B1, “Foaming compositions” (Beiersdorf AG, priority 2001, dated 2003).

Test: Polarity of lipids (no method described)
Assay type: physicochemical
Details: further lipids with polarity ≥ 30 mN/m, listed by INCI name

| Polarität | Compound |
| --- | --- |
| 31,0 mN/m | CCCCC(CC)COC(=O)CCCCCC(C)C (stereo not drawn) [2- Ethylhexyl Isononanoate] |
| 40,5 mN/m | CCCCCCCC/C=C\CCCCCCCC(=O)OCCOCCOCC [Ethoxydiglycol Oleate] |
| 43,8 mN/m | CCCCCCCCCCCCCC(C)C [Isohexadecane] |
| 31,6 mN/m | CCCCCCCCOC(=O)CCCCCCCCCCCCCCC(C)C [Octyl Isostearate] |
| 31,1 mN/m | CC(CCOC(=O)CC(C)CC(C)(C)C)CC(C)(C)C (stereo not drawn) [Trimethylhexyl Isononanoate] |
| 36,2 mN/m | Isocetyl Palmitate |
| 41,9 mN/m | Isoeikosan |

| Compound | Polarität |
| --- | --- |
| Dioctylcyclohexane | 39,0 mN/m |

Same assay, conditions: lipids of the oil phase with polarity ≤ 30 mN/m, listed by manufacturer, trade name and INCI name

| Polarität | Compound |
| --- | --- |
| 14,3 mN/m | CCCCOC(=O)CCCCC(=O)OCCCC [Cetiol B, Dibutyl Adipate] |
| 29,9 mN/m | CC(C)CCCCCCCOC(=O)C(C)(C)C [DUB VCI 10, Isodecyl Neopentanoate] |
| 26,2 mN/m | CCCCC(CC)C(=O)OCCC(C)CC(C)(C)C (stereo not drawn) [Dermol 98, 2-Ethylhexanosäure 3,5,5 Trimethylester] |
| 29,6 mN/m | CCCCCCCC(=O)OCCCCCCCC(C)C [Dermol 108, Isodecyl Octanoate] |
| 29,7 mN/m | CCCCCCCCCC(=O)OCCCC(C)C [Dermol IHD, Isohexyldecanoate] |
| 29,2 mN/m | CCCCCCOCCCCCC [Dihexyl Ether] |
| 21,9 mN/m | CCCCCCCCCCCCCCCCCC(=O)OC(C)C [Isopropylstearat, Isopropyl Stearate] |
| 22,1 mN/m | CCCCCCCCCCCCCC(=O)OCC(CCCCCCCC)CCCCCCCCCC (stereo not drawn) [M.O.D., Octyldodeceyl Myristate] |
| 17,8 mN/m | CCCCCCCCCCCCCCCCCCOC(=O)CCCCCC [Tegosoft SH, Stearyl Heptanoate] |
| 20,2 mN/m | CCCCCCCC(=O)OCC(COC(=O)CCCCCCC)OC(=O)CCCCCCC [Trivent OCG, Tricaprylin] |
| 28,6 mN/m | Cetearyl Isononanoate [Cetiol SN] |
| 28,5 mN/m | Cyclomethicone [DC Fluid 345] |
| 28,5 mN/m | Cyclopolydimethylsiloxan [Dow Corning Fluid 244] |
| 24,5 mN/m | Isotridecyl 3,5,5 Trimethylhexanonanoate [Dermol 139] |
| 10,1 mN/m | PEG 2 Diethylenhexanoate [Dermol 488] |
| 22,7 mN/m | Phenyl Trimethicone [Silikonöl VP 1120] |
| 2,4 mN/m | Triisostearin [Prisorine 2041 GTIS] |

| Compound | Polarität |
| --- | --- |
| CC(C)CCCCCCCOC(=O)CC(C)CC(C)(C)C (stereo not drawn) [Dermol 109, Isodecyl 3,5,5 Trimethyl Hexanoate] | 29,1 mN/m |
| CCCCCCCCCCC(CO)CCCCCCCC (stereo not drawn) [Eutanol G, Octyldodecanol] | 24,8 mN/m |
| CCCCCCC(CCCC)C(=O)O (stereo not drawn) [Isocarb 12, Butyl Octanoicacid] | 22,1 mN/m |
| CCCCCCC(CO)CCCC (stereo not drawn) [Isofol 12, Butyl Octanol] | 17,4 mN/m |
| CCCCCCCCC(CO)CCCCCC (stereo not drawn) [Isofol 16, Hexyl Decanol] | 24,3 mN/m |
